Measured values: patent US20240246960A1 (adMare Therapeutics Society, priority 2021, published 2024)

Key:
[1] = Pharmacokinetic study in mice (IV, PO); type: in vivo, mice (C57BL/6); details: Mouse Plasma; for AUC(0-t) / half-life / AUC(0-inf) / Cmax / Cmax at 5 min: female, C57BL/6; for AUC(0-inf): read-out: AUCINF—obs; for Cmax: read-out: Cmax (5 min)
Description: Pharmacokinetic analysis of compounds was conducted following bolus intravenous (IV) or bolus oral (PO) gavage in mice. Female mice (C57BL/6) in the 17-26 g range were weighed, and then administered an individually prescribed dose volume based on body weight of formulated compound via the intravenous (IV; tail vein) or oral gavage (PO) route (IV 5 mL/kg; PO 10 mL/kg). At selected timepoints post administration, blood was collected into vials with anticoagulant, processed for plasma by centrifugation, and then kept frozen ([…]) until analysis.
(§1) The in-vivo study plasma samples were analyzed using Ultra Performance Liquid Chromatography (UPLC) with tandem mass spectrometry (MS/MS) detection in multiple reaction monitoring (MRM) mode. A generic bioanalytical method involving plasma sample extraction and cleanup by protein precipitation with acetonitrile was used followed by UPLC-MS/MS analysis.
(§2) A brief example of a generic bioanalytical UPLC-MS/MS method used for analysis of compounds in the in-vivo study plasma samples is as follows. Plasma samples were spiked with internal standard prior to extraction and cleanup by protein precipitation with ice cold acetonitrile containing 0.1% (v/v) ammonium hydroxide at a ratio of 3:1 (solvent:plasma) and centrifuged at 18213 rcf for 15 minutes at 4° C. to pellet precipitates. Aliquots of supernatants were transferred to a 96-well plate and evaporated to dryness at 40° C. under a stream of nitrogen gas. Samples were reconstituted in 50:50 acetonitrile/10 mM ammonium acetate buffer pH 8, mixed thoroughly and analyzed using Ultra Performance Liquid Chromatography (UPLC) with tandem mass spectrometry (MS/MS) detection in multiple reaction monitoring (MRM) mode. Matrix-matched calibration standards and quality control (QC) samples were prepared in naïve C57Bl/6 mouse plasma. The UPLC column used was Waters Acquity UPLC BEH C18 1.7 um, 2.1 mm×50 mm (with guard column). The UPLC mobile phase consisted of: Mobile phase A: 10 mM ammonium acetate in Water pH 8, and Mobile phase B: Acetonitrile. Separation was accomplished with a linear gradient of 5% mobile phase B to 95% mobile phase B in 2 min, and a flow rate of 0.35 mL/min. The MS/MS data acquisition was accomplished using 3 MRM Transitions in ESI+ mode. Parent ion mass 508.37 m/z-to-Daughter ions (m/z) 117.05, 232.13 and 270.22. The quantitation of concentrations in test samples was achieved by matrix-matched calibration with normalization using an internal standard. Data acquisition and analysis were performed using Waters MassLynx software with TargetLynx application manager.
(§3) Estimation of PK parameters was performed using independent noncompartmental model method by PHOENIX WinNonlin software.

[2] = Pharmacokinetic study in dogs (IV, PO); type: in vivo, Beagle dogs; details: Table C, Dog Plasma; for AUC(0-t) / Cmax at 5 min / half-life / AUC(0-inf): male, Beagle; for AUC(0-inf): read-out: AUCINF—obs
Description: Pharmacokinetic studies were conducted to estimate plasma concentrations obtained after oral gavage (PO) and intravenous (IV) single administration of compounds administered to separate groups of male Beagle dogs. Three (3) dogs were administered a compound via the intravenous (IV) route at 3 mg/kg and 2.5 mL/kg, and plasma was collected at 12 timepoints over a 24-hour period. Following a 7 days washout period, the same dogs were administered the same compound via PO at 10 mg/kg and 5 mL/kg, and plasma was collected at 12 timepoints over a 48-hour period.
as §1, §2, §3

[3] = Pharmacokinetic study in rats (IV, PO); type: in vivo, Sprague-Dawley rats; details: Table B, Rat Plasma; for AUC(0-t) / half-life / AUC(0-inf) / Cmax: male, Sprague-Dawley; for AUC(0-inf): read-out: AUCINF—obs; for Cmax: read-out: Cmax (5 min)
Description: Pharmacokinetic studies were conducted to estimate plasma concentrations obtained after oral gavage (PO) and intravenous (IV) single administration of compounds administered to male Sprague-Dawley rats. Six (6) rats were administered for each compound, route and dose, and plasma was collected at 12 timepoints over a 24 hr period for IV, and 12 timepoints over a 48 hr period for PO. Note that plasma was collected from only 3 animals per timepoint (n=3 for timepoints up to 10 hours, and n=3 for timepoints from 16 h to end of study). Dosing volumes were 5 mL/kg for IV and 10 mL/kg for PO gavage. IV compounds for administration were in solutions, whereas PO compounds were in solution or suspension.
as §1, §2, §3

In the case of `O=C(N[C@H]1CC[C@@H](Oc2nc(N3CCOCC3)cc3ncccc23)CC1)c1ncccn1` [Compound 123, N-((1s,4s)-4-((7-Morpholino-1,6-naphthyridin-5-yl)oxy)cyclohexyl)pyrimidine-2-carboxamide], the “AUC—%Extrap—obs” value ([1]; Table A, IV, 3 mg/kg) is reported as 0.73%, the Cl_obs ([1]; Table A, IV, 3 mg/kg) is reported as 21.2632 mL/min/kg and the Vz_obs ([1]; Table A, IV, 3 mg/kg) is reported as 3.93714 L/kg. The “AUC—%Extrap—obs” value ([1]; Table A, PO, 10 mg/kg) was 6.92%, the Cl_obs ([1]; Table A, PO, 10 mg/kg) was 32.236 mL/min/kg and the F ([1]; Table A, PO, 10 mg/kg) was 62%. For the same compound, the Vz_obs ([1]; Table A, PO, 10 mg/kg) was 9.80258 L/kg, the AUC(0-t) ([1]; Table A, IV, 3 mg/kg) was 2330 ng·h/mL and the half-life ([1]; Table A, IV, 3 mg/kg) was 2.14 h. It also gave an AUC(0-inf) ([1]; Table A, IV, 3 mg/kg) of 2350 ng·h/mL, a Cmax ([1]; Table A, IV, 3 mg/kg) of 3660 ng/mL and an AUC(0-t) ([1]; Table A, PO, 10 mg/kg) of 4810 ng·h/mL. For the same compound, the half-life ([1]; Table A, PO, 10 mg/kg) was 3.51 h, the AUC(0-inf) ([1]; Table A, PO, 10 mg/kg) was 5170 ng·h/mL and the Cmax ([1]; Table A, PO, 10 mg/kg) was 2380 ng/mL. For the same compound, the “AUC—%Extrap—obs” value ([2]; IV, 3 mg/kg) was 2.17%, the Cl_obs ([2]; IV, 3 mg/kg) was 10.237 mL/min/kg and the Vz_obs ([2]; IV, 3 mg/kg) was 4.4105 L/kg. The “AUC—%Extrap—obs” value ([2]; PO, 10 mg/kg) was 0.29%, the Cl_obs ([2]; PO, 10 mg/kg) was 10.148 mL/min/kg and the F ([2]; PO, 10 mg/kg) was 108%. For the same compound, the Vz_obs ([2]; PO, 10 mg/kg) was 5.13768 L/kg, the AUC(0-t) ([2]; IV, 3 mg/kg) was 4940 ng·h/mL and the Cmax at 5 min ([2]; IV, 3 mg/kg) was 2470 ng/mL. For the same compound, the half-life ([2]; IV, 3 mg/kg) was 5.2 h, the AUC(0-inf) ([2]; IV, 3 mg/kg) was 5070 ng·h/mL and the AUC(0-t) ([2]; PO, 10 mg/kg) was 17800 ng·h/mL. The Cmax at 5 min ([2]; PO, 10 mg/kg) was 2970 ng/mL, the half-life ([2]; PO, 10 mg/kg) was 6.03 h and the AUC(0-inf) ([2]; PO, 10 mg/kg) was 17800 ng·h/mL. The “AUC—%Extrap—obs” value ([3]; IV, 3 mg/kg) was 0.48%, the Cl_obs ([3]; IV, 3 mg/kg) was 50.8342 mL/min/kg and the Vz_obs ([3]; IV, 3 mg/kg) was 4.33451 L/kg. The “AUC—%Extrap—obs” value ([3]; PO, 3 mg/kg) was 16.96%, the Cl_obs ([3]; PO, 3 mg/kg) was 252.6873 mL/min/kg and the F ([3]; PO, 3 mg/kg) was 17%. The Vz_obs ([3]; PO, 3 mg/kg) was 85.17336 L/kg, the “AUC—%Extrap—obs” value ([3]; PO, 10 mg/kg) was 19.45% and the Cl_obs ([3]; PO, 10 mg/kg) was 92.7505 mL/min/kg. For the same compound, the F ([3]; PO, 10 mg/kg) was 44%, the Vz_obs ([3]; PO, 10 mg/kg) was 34.17323 L/kg and the “AUC—%Extrap—obs” value ([3]; PO, 30 mg/kg) was 28.47%. The Cl_obs ([3]; PO, 30 mg/kg) was 43.6063 mL/min/kg, the F ([3]; PO, 30 mg/kg) was 84% and the Vz_obs ([3]; PO, 30 mg/kg) was 19.76577 L/kg. For the same compound, the AUC(0-t) ([3]; IV, 3 mg/kg) was 979 ng·h/mL, the half-life ([3]; IV, 3 mg/kg) was 0.99 h and the AUC(0-inf) ([3]; IV, 3 mg/kg) was 984 ng·h/mL. It also gave a Cmax ([3]; IV, 3 mg/kg) of 1490 ng/mL, an AUC(0-t) ([3]; PO, 3 mg/kg) of 164 ng·h/mL and a half-life ([3]; PO, 3 mg/kg) of 3.89 h. It also gave an AUC(0-inf) ([3]; PO, 3 mg/kg) of 198 ng·h/mL, a Cmax ([3]; PO, 3 mg/kg) of 32.2 ng/mL and an AUC(0-t) ([3]; PO, 10 mg/kg) of 1450 ng·h/mL. It also gave a half-life ([3]; PO, 10 mg/kg) of 4.26 h, an AUC(0-inf) ([3]; PO, 10 mg/kg) of 1800 ng·h/mL and a Cmax ([3]; PO, 10 mg/kg) of 396 ng/mL. It also gave an AUC(0-t) ([3]; PO, 30 mg/kg) of 8200 ng·h/mL, a half-life ([3]; PO, 30 mg/kg) of 5.24 h and an AUC(0-inf) ([3]; PO, 30 mg/kg) of 11500 ng·h/mL. For the same compound, the Cmax ([3]; PO, 30 mg/kg) was 1570 ng/mL.

For `O=C(N[C@H]1CC[C@@H](Oc2nc(N3CCOCC3)cc3ncccc23)CC1)c1cc[nH]c1` [Compound 140, N-((1s,4s)-4-((7-morpholino-1,6-naphthyridin-5-yl)oxy)cyclohexyl)-1H-pyrrole-3-carboxamide], the “AUC—%Extrap—obs” value ([1]; Table D, IV, 3 mg/kg) was 0.91%, the Cl_obs ([1]; Table D, IV, 3 mg/kg) was 34.092 mL/min/kg and the Vz_obs ([1]; Table D, IV, 3 mg/kg) was 3.32052 L/kg. For the same compound, the “AUC—%Extrap—obs” value ([1]; Table D, PO, 10 mg/kg) was 0.39%, the Cl_obs ([1]; Table D, PO, 10 mg/kg) was 77.5327 mL/min/kg and the F ([1]; Table D, PO, 10 mg/kg) was 44%. It also gave a Vz_obs ([1]; Table D, PO, 10 mg/kg) of 18.51427 L/kg, an AUC(0-t) ([1]; Table D, IV, 3 mg/kg) of 1450 ng·h/mL and a Cmax at 5 min ([1]; Table D, IV, 3 mg/kg) of 2020 ng/mL. The half-life ([1]; Table D, IV, 3 mg/kg) was 1.13 h, the AUC(0-inf) ([1]; Table D, IV, 3 mg/kg) was 1470 ng·h/mL and the AUC(0-t) ([1]; Table D, PO, 10 mg/kg) was 2140 ng·h/mL. The Cmax at 5 min ([1]; Table D, PO, 10 mg/kg) was 1240 ng/mL, the half-life ([1]; Table D, PO, 10 mg/kg) was 2.76 h and the AUC(0-inf) ([1]; Table D, PO, 10 mg/kg) was 2150 ng·h/mL.
